Experimental data published in the NIST ThermoML archive (doi:10.1021/acs.jced.7b00654).
Numbers after ± are expanded uncertainties.

Experiments:
[1] = 96.7 kPa, Vibrating tube method
[2] = xn = mol fraction of the nth substance listed; conditions: 96.7 kPa, Liquid, Vibrating tube method

Structure (SMILES) | mass density ([2]; 303.15 K, x2 = 0) | mass density ([2]; 308.15 K, x2 = 0) | mass density ([2]; 313.15 K, x2 = 0) | mass density ([2]; 318.15 K, x2 = 0) | mass density ([2]; 323.15 K, x2 = 0) | mass density ([2]; 328.15 K, x2 = 0) | mass density ([2]; 333.15 K, x2 = 0) | mass density ([2]; 338.15 K, x2 = 0) | mass density ([2]; 343.15 K, x2 = 0) | mass density ([2]; 348.15 K, x2 = 0) | mass density ([2]; 353.15 K, x2 = 0) | further results
CCCCn1cc[n+](C)c1.[Cl-] [1-butyl-3-methylimidazolium chloride] |  |  |  |  |  |  |  |  |  |  |  | mass density ([1]; 303.15 K, Metastable liquid): 1079.41 ± 2.3 kg/m3; mass density ([1]; 308.15 K, Metastable liquid): 1076.58 ± 2.3 kg/m3; mass density ([1]; 313.15 K, Metastable liquid): 1073.78 ± 2.3 kg/m3; mass density ([1]; 318.15 K, Metastable liquid): 1070.99 ± 2.3 kg/m3; mass density ([1]; 323.15 K, Metastable liquid): 1068.19 ± 2.3 kg/m3; mass density ([1]; 328.15 K, Metastable liquid): 1065.36 ± 2.3 kg/m3; mass density ([1]; 333.15 K, Metastable liquid): 1062.6 ± 2.3 kg/m3; mass density ([1]; 338.15 K, Metastable liquid): 1059.87 ± 2.3 kg/m3; mass density ([1]; 343.15 K, Liquid): 1057.15 ± 2.3 kg/m3; mass density ([1]; 348.15 K, Liquid): 1054.42 ± 2.3 kg/m3; mass density ([1]; 353.15 K, Liquid): 1051.69 ± 2.3 kg/m3
CCCCn1cc[n+](C)c1.[Cl-] [1-butyl-3-methylimidazolium chloride] + c1ccncc1 |  |  |  |  |  |  |  |  |  |  |  | mass density ([2]; 303.15 K, x1 = 1): 1079.41 ± 2.3 kg/m3; mass density ([2]; 308.15 K, x1 = 1): 1076.58 ± 2.3 kg/m3; mass density ([2]; 313.15 K, x1 = 1): 1073.78 ± 2.3 kg/m3; mass density ([2]; 318.15 K, x1 = 1): 1070.99 ± 2.3 kg/m3; mass density ([2]; 323.15 K, x1 = 1): 1068.19 ± 2.3 kg/m3; mass density ([2]; 328.15 K, x1 = 1): 1065.36 ± 2.3 kg/m3; mass density ([2]; 333.15 K, x1 = 1): 1062.6 ± 2.3 kg/m3; mass density ([2]; 338.15 K, x1 = 1): 1059.87 ± 2.3 kg/m3; mass density ([2]; 343.15 K, x1 = 1): 1057.15 ± 2.3 kg/m3; mass density ([2]; 348.15 K, x1 = 1): 1054.42 ± 2.3 kg/m3; mass density ([2]; 353.15 K, x1 = 1): 1051.69 ± 2.3 kg/m3
CC(=O)N(C)C [N,N-dimethylethanamide] + CCCCn1cc[n+](C)c1.[Cl-] | 931.85 ± 2 kg/m3 | 927.26 ± 2 kg/m3 | 922.66 ± 2 kg/m3 | 918.06 ± 2 kg/m3 | 913.44 ± 1.9 kg/m3 | 908.81 ± 1.9 kg/m3 | 904.16 ± 1.9 kg/m3 | 899.53 ± 1.9 kg/m3 | 894.87 ± 1.9 kg/m3 | 890.19 ± 1.9 kg/m3 | 885.51 ± 1.9 kg/m3 | 

Now from value to molecule, other results behind:

mass density ([2]; 303.15 K, x2 = 0) | mass density ([2]; 308.15 K, x2 = 0) | mass density ([2]; 313.15 K, x2 = 0) | mass density ([2]; 318.15 K, x2 = 0) | mass density ([2]; 323.15 K, x2 = 0) | mass density ([2]; 328.15 K, x2 = 0) | mass density ([2]; 333.15 K, x2 = 0) | mass density ([2]; 338.15 K, x2 = 0) | mass density ([2]; 343.15 K, x2 = 0) | mass density ([2]; 348.15 K, x2 = 0) | mass density ([2]; 353.15 K, x2 = 0) | Structure (SMILES) | further results
1090.29 ± 2.2 kg/m3 | 1085.28 ± 2.2 kg/m3 | 1080.3 ± 2.2 kg/m3 | 1075.31 ± 2.2 kg/m3 | 1070.32 ± 2.2 kg/m3 | 1065.33 ± 2.1 kg/m3 | 1060.34 ± 2.1 kg/m3 | 1055.34 ± 2.1 kg/m3 | 1050.35 ± 2.1 kg/m3 | 1045.34 ± 2.1 kg/m3 | 1040.33 ± 2.1 kg/m3 | C[S+](C)[O-] [dimethyl sulfoxide] + CCCCn1cc[n+](C)c1.[Cl-] | 
939.18 ± 1.9 kg/m3 | 934.41 ± 1.9 kg/m3 | 929.64 ± 1.9 kg/m3 | 924.86 ± 1.9 kg/m3 | 920.07 ± 1.9 kg/m3 | 915.26 ± 1.8 kg/m3 | 910.44 ± 1.8 kg/m3 | 905.6 ± 1.8 kg/m3 | 900.74 ± 1.8 kg/m3 | 895.87 ± 1.8 kg/m3 | 890.98 ± 1.8 kg/m3 | CN(C)C=O [dimethylformamide] + CCCCn1cc[n+](C)c1.[Cl-] | 
